This note sets out measurements from US20160106102A1, “KNOWN AND NEW HETEROCYCLIC COMPOUNDS AS PEST CONTROL AGENTS” (BAYER CROPSCIENCE AKTIENGESELLSCHAFT, priority 2013, published 2016).

One data set relates to Myzus persicae. Description: Myzus persicae - sachet test. As to conditions: application rate of 6 ppm in nutrient medium; 100% = all animals killed. The class given is in vivo. In short, it runs like this:
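Green peach aphids feed through a sealed sachet on nutrient medium containing the water-diluted formulation (solvents: 2% N-methylpyrrolidone, 2% diacetone alcohol). Percent mortality read after the chosen time; 100% means all animals killed.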
Take `Cc1cc(NC(=O)c2cccnc2)nn1S(=O)(=O)c1ccccn1` [Compound I-1-279]: the “efficacy (kill in %)” value was determined as 100%.

As for `Cc1cc(NC(=O)c2cccnc2)nn1Cc1noc(C(=O)N(C)C)n1` [Compound I-1-286], the “efficacy (kill in %)” value is recorded as 100%.

On to `O=C(Nc1nn(Cc2ncccn2)c2ccccc12)c1cccnc1` [Compound I-1-215], for which the “efficacy (kill in %)” value is reported as 100%.

Consider `Cn1nc(NC(=O)c2cccnc2)c2cccnc21` [Compound I-1-39], for which the “efficacy (kill in %)” value came out at 100%.

`CNC(=O)n1nc(NC(=O)c2cccnc2)cc1C` [Compound I-1-292]: the “efficacy (kill in %)” value worked out at 100%.

On to `Cc1cc(NC(=O)c2cccnc2)nn1C(=O)NCC1COC(C)(C)O1` (centres unmarked) [Compound I-1-164], for which the “efficacy (kill in %)” value was 100%.

On to `Cc1cc(NC(=O)c2cccnc2)nn1CC(F)F` [Compound I-1-4], for which the “efficacy (kill in %)” value was 100%.

In the case of `Cc1cc(NC(=O)c2cccnc2)nn1C` [Compound I-1-3], the “efficacy (kill in %)” value is listed as 100%.

`CCCNC(=O)n1nc(NC(=O)c2cccnc2)cc1C` [Compound I-1-314]: the “efficacy (kill in %)” value worked out at 100%.

`Cc1cc(NC(=O)c2cccnc2)nn1CC#N` [Compound I-1-11]: the “efficacy (kill in %)” value was found to be 100%.

Turning to `Cc1cc(NC(=O)c2cccnc2)nn1CC1CC1(Cl)Cl` (centres unmarked) [Compound I-1-237], the “efficacy (kill in %)” value was 100%.

For `Cc1c(NC(=O)c2cccnc2)nn(Cc2ncccn2)c1C` [Compound I-1-123], the “efficacy (kill in %)” value is 100%.

On to `Cc1c(F)c(NC(=O)c2cccnc2)nn1Cc1ncccn1` [Compound I-1-211], for which the “efficacy (kill in %)” value was 100%.

Consider `Cc1cc(NC(=O)c2cccnc2)nn1C(=O)NCC[S+](C)[O-]` (centres unmarked) [Compound I-1-308], for which the “efficacy (kill in %)” value was 100%.

Staying with this data set, now noted: application rate of 30 ppm in nutrient medium; 100% = all animals killed.
Regarding `Cc1cc(N(C)C(=O)c2cccnc2)nn1C` [Compound I-1-16], the “efficacy (kill in %)” value is recorded as 100%.

Turning to `Cc1cc(NC(=O)c2cccnc2)nn1S(=O)(=O)c1ccccn1` [Compound I-1-279], the “efficacy (kill in %)” value was 100%.

`Cc1cc(NC(=O)c2cccnc2)nn1Cc1noc(C(=O)N(C)C)n1` [Compound I-1-286]: the “efficacy (kill in %)” value was found to be 100%.

`O=C(Nc1nn(Cc2ncccn2)c2ccccc12)c1cccnc1` [Compound I-1-215]: the “efficacy (kill in %)” value turned out to be 100%.

As for `Cn1nc(NC(=O)c2cccnc2)c2cccnc21` [Compound I-1-39], the “efficacy (kill in %)” value came to 100%.

Take `CNC(=O)n1nc(NC(=O)c2cccnc2)cc1C` [Compound I-1-292]: the “efficacy (kill in %)” value came out at 100%.

As to `Cc1cc(NC(=O)c2cccnc2)nn1C(=O)NCC1COC(C)(C)O1` (centres unmarked) [Compound I-1-164], the “efficacy (kill in %)” value turned out to be 100%.

For the compound `Cc1cc(NC(=O)c2cccnc2)nn1CC(F)F` [Compound I-1-4], the “efficacy (kill in %)” value worked out at 100%.

Regarding `Cc1cc(NC(=O)c2cccnc2)nn1C` [Compound I-1-3], the “efficacy (kill in %)” value is 100%.

Consider `CCCNC(=O)n1nc(NC(=O)c2cccnc2)cc1C` [Compound I-1-314], for which the “efficacy (kill in %)” value was determined as 100%.

With `Cc1cc(NC(=O)c2cccnc2)nn1CC#N` [Compound I-1-11], the “efficacy (kill in %)” value is 100%.

Regarding `Cc1cc(NC(=O)c2cccnc2)nn1CC1CC1(Cl)Cl` (centres unmarked) [Compound I-1-237], the “efficacy (kill in %)” value is 100%.

Regarding `Cc1c(NC(=O)c2cccnc2)nn(Cc2ncccn2)c1C` [Compound I-1-123], the “efficacy (kill in %)” value was 100%.

Turning to `Cc1cc(NC(=O)c2cccnc2)nn1C(=O)NCC1CCCO1` (centres unmarked) [Compound I-1-311], the “efficacy (kill in %)” value worked out at 100%.

Consider `Cc1c(F)c(NC(=O)c2cccnc2)nn1Cc1ncccn1` [Compound I-1-211], for which the “efficacy (kill in %)” value was 100%.

Consider `Cc1cc(NC(=O)c2cccnc2)nn1C(=O)NCC[S+](C)[O-]` (centres unmarked) [Compound I-1-308], for which the “efficacy (kill in %)” value stood at 100%.

The next data set relates to Myzus persicae. As to the kind of experiment: Myzus persicae - spray test. The class given is in vivo. To be noted: application rate of 500 g/ha; after 6 days; sprayed Chinese cabbage leaf discs infested by all stages; 100% = all aphids killed. The procedure:
Myzus persicae—spray test Solvent: 78 parts by weight of acetone • • 1.5 parts by weight of dimethylformamide Emulsifier: 0.5 part by weight of alkylaryl polyglycol ether To produce an appropriate active ingredient formulation, 1 part by weight of active ingredient is mixed with the specified amounts of solvent and emulsifier, and the concentrate is diluted to the desired concentration with emulsifier-containing water. Discs of Chinese cabbage leaves (Brassica pekinensis) infested by all stages of the green peach aphid (Myzus persicae) are sprayed with an active ingredient formulation of the desired concentration. After 6 days, the efficacy in % is determined. 100% means that all the aphids have been killed; 0% means that no aphids have been killed.
The compound `Cc1cc(N(C)C(=O)c2cccnc2)nn1C` [Compound I-1-16] yielded an efficacy in % of 90%.

Take `Cc1cc(NC(=O)c2cccnc2)nn1S(=O)(=O)c1ccccn1` [Compound I-1-279]: the efficacy in % worked out at 90%.

With `Cc1cc(NC(=O)c2cccnc2)nn1Cc1noc(C(=O)N(C)C)n1` [Compound I-1-286], the efficacy in % is recorded as 100%.

In turn, `O=C(Nc1nn(Cc2ncccn2)c2ccccc12)c1cccnc1` [Compound I-1-215] yielded an efficacy in % of 90%.

`Cn1nc(NC(=O)c2cccnc2)c2cccnc21` [Compound I-1-39] yielded an efficacy in % of 90%.

As to `CNC(=O)n1nc(NC(=O)c2cccnc2)cc1C` [Compound I-1-292], the efficacy in % is recorded as 100%.

The compound `Cc1cc(NC(=O)c2cccnc2)nn1C(=O)NCC1COC(C)(C)O1` (centres unmarked) [Compound I-1-164] gave an efficacy in % of 90%.

Regarding `Cc1cc(NC(=O)c2cccnc2)nn1CC(F)F` [Compound I-1-4], the efficacy in % was found to be 100%.

In turn, `Cc1cc(NC(=O)c2cccnc2)nn1C` [Compound I-1-3] had an efficacy in % of 90%.

Turning to `CCCNC(=O)n1nc(NC(=O)c2cccnc2)cc1C` [Compound I-1-314], the efficacy in % amounted to 90%.

With `Cc1cc(NC(=O)c2cccnc2)nn1CC#N` [Compound I-1-11], the efficacy in % is 80%.

Turning to `Cc1cc(NC(=O)c2cccnc2)nn1CC1CC1(Cl)Cl` (centres unmarked) [Compound I-1-237], the efficacy in % turned out to be 90%.

Turning to `Cc1c(NC(=O)c2cccnc2)nn(Cc2ncccn2)c1C` [Compound I-1-123], the efficacy in % came out at 90%.

`Cc1cc(NC(=O)c2cccnc2)nn1C(=O)NCC1CCCO1` (centres unmarked) [Compound I-1-311]: the efficacy in % was 90%.

`Cc1c(F)c(NC(=O)c2cccnc2)nn1Cc1ncccn1` [Compound I-1-211] yielded an efficacy in % of 90%.

In turn, `Cc1cc(NC(=O)c2cccnc2)nn1C(=O)NCC[S+](C)[O-]` (centres unmarked) [Compound I-1-308] showed an efficacy in % of 90%.

System in a further data set: not listed separately
As to the kind of experiment: log P determination by LC-MS in the acidic range. In kind it is physicochemical. As to conditions: LC-MS in the acidic range. From the text: The LC-MS determination in the acidic range is effected at pH 2.7 using 0.1% aqueous formic acid and acetonitrile (contains 0.1% formic acid) as eluents, linear gradient from 10% acetonitrile to 95% acetonitrile. Alternatively, the determination is effected in the acidic range at pH 2.3 using 0.1% aqueous phosphoric acid and acetonitrile as eluents; linear gradient from 10% acetonitrile to 95% acetonitrile.
With `Cc1cc(N(C)C(=O)c2cccnc2)nn1C` [Compound I-1-16], the “log P (acid)” value was 0.65.

Turning to `Cc1cc(NC(=O)c2cccnc2)nn1S(=O)(=O)c1ccccn1` [Compound I-1-279], the “log P (acid)” value is 1.51.

Consider `Cc1cc(NC(=O)c2cccnc2)nn1Cc1noc(C(=O)N(C)C)n1` [Compound I-1-286], for which the “log P (acid)” value is recorded as 1.03.

As to `O=C(Nc1nn(Cc2ncccn2)c2ccccc12)c1cccnc1` [Compound I-1-215], the “log P (acid)” value was 1.16.

In the case of `Cn1nc(NC(=O)c2cccnc2)c2cccnc21` [Compound I-1-39], the “log P (acid)” value amounted to 0.78.

On to `CNC(=O)n1nc(NC(=O)c2cccnc2)cc1C` [Compound I-1-292], for which the “log P (acid)” value is reported as 0.97.

Take `Cc1cc(NC(=O)c2cccnc2)nn1C(=O)NCC1COC(C)(C)O1` (centres unmarked) [Compound I-1-164]: the “log P (acid)” value came out at 1.56.

In the case of `Cc1cc(NC(=O)c2cccnc2)nn1CC(F)F` [Compound I-1-4], the “log P (acid)” value turned out to be 1.05.

On to `Cc1cc(NC(=O)c2cccnc2)nn1C` [Compound I-1-3], for which the “log P (acid)” value turned out to be 0.63.

With `CCCNC(=O)n1nc(NC(=O)c2cccnc2)cc1C` [Compound I-1-314], the “log P (acid)” value is recorded as 1.56.

Take `Cc1cc(NC(=O)c2cccnc2)nn1CC#N` [Compound I-1-11]: the “log P (acid)” value was 0.7.

On to `Cc1cc(NC(=O)c2cccnc2)nn1CC1CC1(Cl)Cl` (centres unmarked) [Compound I-1-237], for which the “log P (acid)” value came out at 1.84.

In the case of `Cc1c(NC(=O)c2cccnc2)nn(Cc2ncccn2)c1C` [Compound I-1-123], the “log P (acid)” value is 0.76.

In the case of `Cc1cc(NC(=O)c2cccnc2)nn1C(=O)NCC1CCCO1` (centres unmarked) [Compound I-1-311], the “log P (acid)” value came to 1.45.

For `Cc1c(F)c(NC(=O)c2cccnc2)nn1Cc1ncccn1` [Compound I-1-211], the “log P (acid)” value worked out at 0.72.

Regarding `Cc1cc(NC(=O)c2cccnc2)nn1C(=O)NCC[S+](C)[O-]` (centres unmarked) [Compound I-1-308], the “log P (acid)” value was found to be 0.84.
